Data on one compound can be found in patent US20140371305A1, “Mupirocin Antibiotic Composition” (PROFESSIONAL COMPOUNDING CENTERS OF AMERICA, priority 2013, published 2014).

One assay relates to Pseudomonas aeruginosa. Nature of the assay: Minimum inhibitory concentration (MIC) test. In kind it is cell-based. Conditions: mupirocin combined with micronized poloxamer composition 202 (poloxamer 188 and poloxamer 407). The protocol:
(§1) “Minimum Inhibitory Concentration (MIC)” may refer to the lowest concentration of an antimicrobial that may inhibit the visible growth of a microorganism after overnight incubation.
(§2) Moreover, micronized poloxamer composition 202 may enhance mupirocin's properties by lowering the minimum inhibitory concentration (MIC) to about […]. The MIC was tested against microorganisms such as Pseudomonas aeruginosa, and Methicillin Resistant Staphylococcus aureus, among others.

For assay [1], the system named is Methicillin Resistant Staphylococcus aureus. Put plainly: Minimum inhibitory concentration (MIC) test. Conditions: mupirocin combined with micronized poloxamer composition 202 (poloxamer 188 and poloxamer 407). In kind it is cell-based. The protocol: as §1, §2

`C/C(=C\C(=O)OCCCCCCCCC(=O)O)C[C@@H]1OC[C@H](C[C@@H]2O[C@H]2[C@@H](C)[C@H](C)O)[C@@H](O)[C@H]1O` [mupirocin]: the “minimum inhibitory concentration (MIC)” value (in the assay on Pseudomonas aeruginosa; in assay [1]) was “about 1.7 g” throughout.
